Assay results reported in patent publication US20080249141A1, “Co-therapy with and combinations of statins and 1,4-dihydropyridine-3,5-dicarboxydiesters” (priority 2007, published 2008).

Settings: patient

Row | Compound | therapeutic effectiveness after change from crystalline atorvastatin calcium (20 mg once daily with 10 mg amlodipine) | therapeutic effect (20 mg once a day, co-administered 10 mg amlodipine once daily)
1 | CC(C)c1c(C(=O)Nc2ccccc2)c(-c2ccccc2)c(-c2ccc(F)cc2)n1CC[C@@H](O)C[C@@H](O)CC(=O)[O-].CC(C)c1c(C(=O)Nc2ccccc2)c(-c2ccccc2)c(-c2ccc(F)cc2)n1CC[C@@H](O)C[C@@H](O)CC(=O)[O-].[Ca+2] [amorphous atorvastatin calcium] | without change in the therapeutic effectiveness | 
2 | CC(C)c1c(C(=O)Nc2ccccc2)c(-c2ccccc2)c(-c2ccc(F)cc2)n1CC[C@@H](O)C[C@@H](O)CC(=O)[O-].CC(C)c1c(C(=O)Nc2ccccc2)c(-c2ccccc2)c(-c2ccc(F)cc2)n1CC[C@@H](O)C[C@@H](O)CC(=O)[O-].[Ca+2] [crystalline atorvastatin calcium] |  | good therapeutic effect
